US10526373B2, “Peptide showing melanin generation-promoting activity and use thereof” (CAREGEN CO., LTD., priority 2016, dated 2020)
No end group written: not given here.

How the values were obtained:
Assay type in all cases: cell-based
[1] = test system: TRP1; test: RT-PCR of melanogenesis-related genes: TRP1; conditions: mouse melanin cell line B16F10, 72 hours
[2] = test system: tyrosinase; test: RT-PCR of melanogenesis-related genes: tyrosinase; conditions: mouse melanin cell line B16F10, 72 hours
Protocol: (§1) Melanocytes (B16F10 cell line) were incubated on 6-well culture plates in an incubator for 24 hours, and were treated with the peptides of the present invention with different concentrations. After RNA was extracted from the cells incubated for 72 hours, cDNA was prepared. PCR was performed by using respective primers specific to MITF and tyrosinase, which are the factors involved in melanogenesis, and the expression changes of the respective genes were observed.

[3] = test system: tyrosinase; test: Tyrosinase activity assay in B16F10 cell lysate (L-dopa); conditions: mouse melanin cell line B16F10, peptide at different concentrations, 72 hours
Protocol: Melanoma cell line (B16F10) cells were cultured in 6-well culture plates for 24 hours, and treated with the peptide with difference concentrations, followed by culture for 72 hours. The 6-well culture plates were loaded on ice and washed with cool PBS, and then 300 μl of 0.1 M sodium phosphate buffer (pH 6 lysis buffer) containing 1% Triton X-100 was added. The cells were collected in 1.5-mL tubes, and then cell membranes were disrupted by repeating five times rapid-freezing at […] and thawing. After centrifugation at 13,000 rpm for 20 minutes, the supernatant was collected in other 1.5-mL tubes, and the protein of the samples was quantified. The samples were diluted to have the same protein concentration and then dispensed in every three wells in 96-well culture plates, and then 20 μl of 10 mM L-dopa was added, followed by incubation at 37° C. for 1 hour. The absorbance was measured at 475 nm.

[4] = test system: MITF; test: RT-PCR of melanogenesis-related genes: MITF; conditions: mouse melanin cell line B16F10, 72 hours
Protocol: as §1

[5] = test system: melanocytes (B16F10 cell line); test: Melanogenesis assay; conditions: mouse melanin cell line B16F10, peptide at different concentrations, 72 hours
Protocol: After melanocytes (B16F10 cell line) in 6-well plates were cultured in an incubator at 37° C. for 24 hours, the medium of each plate was removed and exchanged with fresh medium, followed by treatment with the present peptide at different concentrations. After the incubation for 72 hours, the culture medium was removed, and the cells were taken off and then transferred into 5-ml tubes, followed by centrifugation at 13,000 rpm for 3 minutes. The supernatant was removed, and cell pellets were collected to observe melanin. Then, 150 μl of 2 M NaOH was added to the cell pellets to lyse intracellular melanin at 60° C. for 30 minutes. Then, 100 μl of the supernatant obtained from the lysis was added into each well of 96-well plates, and the absorbance was measured at 490 nm.

[6] = test system: tyrosinase; test: Western blotting of melanogenesis-related proteins: tyrosinase; conditions: mouse melanin cell line B16F10, 72-hour incubation
Protocol: (§2) Melanocytes (B16F10 cell line) were incubated on 6-well culture plates in an incubator for 24 hours, and were treated with the peptides of the present invention with different concentrations. After 72-hour incubation, the cells were lysed, and the cells were subjected to western blotting using specific antibodies (two types, both by Santa Cruz Biotechnology, USA) to investigate the expression of MITF and tyrosinase, which are the factors involved in melanogenesis.

[7] = test system: MITF; test: Western blotting of melanogenesis-related proteins: MITF; conditions: mouse melanin cell line B16F10, 72-hour incubation
Protocol: as §2

[8] = test system: CREB; test: Melanogenesis-related protein activity assay (CREB phosphorylation, western blotting); conditions: mouse melanin cell line B16F10, 72-hour incubation
Protocol: as §2, with “peptide” for “peptides”, “(Cell Signaling Technology,” for “(two types, both by Santa Cruz Biotechnology,”, “phosphorylation level” for “expression”, “CREB,” for “MITF and tyrosinase,”, “is a signaling substance” for “are the factors”

FCLGPCPYIWSL (cysteine pairing not given here) [SEQ ID NO: 2]
increased: mRNA expression of TRP1 [1] | mRNA expression of tyrosinase [2] | tyrosinase activity (absorbance at 475 nm) [3] | mRNA expression of MITF [4] | melanogenesis (melanin, absorbance at 490 nm) [5] | protein expression of tyrosinase [6]

RWRRKIEN [SEQ ID NO: 1]
increased: protein expression of the MITF transcriptional factor [7] | mRNA expression of TRP1 [1] | mRNA expression of tyrosinase [2] | tyrosinase activity (absorbance at 475 nm) [3] | mRNA expression of MITF [4] | melanogenesis (melanin, absorbance at 490 nm) [5] | phosphorylation level of CREB [8] | protein expression of tyrosinase [6]
